Measured values reported in patent publication US11858959B2, “Glycyrrhetinic acid derivatives for use in treating hyperkalemia” (ARDELYX, INC., priority 2019, dated 2024).

target: HSD2 (Homo sapiens (Human), UniProt P80365); assay: HSD2 activity: cortisol level (HTRF) in human descending colon organoid-derived monolayer cultures; conditions: not given
Sequence (P80365 whole entry): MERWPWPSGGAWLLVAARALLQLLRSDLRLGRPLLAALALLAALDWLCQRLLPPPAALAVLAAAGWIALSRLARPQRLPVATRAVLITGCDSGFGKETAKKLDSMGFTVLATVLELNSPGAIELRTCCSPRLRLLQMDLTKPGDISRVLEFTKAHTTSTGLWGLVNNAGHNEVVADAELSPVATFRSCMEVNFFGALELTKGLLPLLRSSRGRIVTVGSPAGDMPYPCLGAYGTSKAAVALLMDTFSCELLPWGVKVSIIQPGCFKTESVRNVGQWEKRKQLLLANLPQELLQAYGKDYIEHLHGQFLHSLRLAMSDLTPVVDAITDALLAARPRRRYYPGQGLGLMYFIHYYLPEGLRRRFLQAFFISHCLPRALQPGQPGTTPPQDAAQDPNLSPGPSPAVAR

Compound	IC50 [µM]
COCC(=O)O[C@H]1CC[C@@]2(C)[C@@H](CC[C@]3(C)[C@@H]2C(=O)C=C2[C@@H]4C[C@@](C)(C(=O)O)CC[C@]4(C)CC[C@]23C)[C@]1(C)C(=O)O [(2S,4aS,6aS,6bR,8aR,9S,10S,12aS,12bR,14bR)-10-[(2-methoxyacetyl)oxy]-2,4a,6a,6b,9,12a-hexamethyl-13-oxo-1,2,3,4,4a,5,6,6a,6b,7,8,8a,9,10,11,12,12a,12b,13,14b-icosahydropicene-2,9-dicarboxylic acid]	> 10
C[C@]1(C(=O)O)CC[C@]2(C)CC[C@]3(C)C(=CC(=O)[C@@H]4[C@@]5(C)CC[C@H](OC(=O)CS(C)(=O)=O)[C@@](C)(C(=O)O)[C@@H]5CC[C@]43C)[C@@H]2C1 [(2S,4aS,6aS,6bR,8aR,9S,10S,12aS,12bR,14bR)-10-[(2-methanesulfonylacetyl)oxy]-2,4a,6a,6b,9,12a-hexamethyl-13-oxo-1,2,3,4,4a,5,6,6a,6b,7,8,8a,9,10,11,12,12a,12b,13,14b-icosahydropicene-2,9-dicarboxylic acid]	> 10
C[C@]1(C(=O)O)CC[C@]2(C)CC[C@]3(C)C(=CC(=O)[C@@H]4[C@@]5(C)CC[C@H](O)[C@@](C)(COCC(=O)O)C5CC[C@]43C)[C@@H]2C1 (stereo partly drawn) [(2S,4aS,6aS,6bR,9R,10S,12aS,12bR,14bR)-9-[(carboxymethoxy)methyl]-10-hydroxy-2,4a,6a,6b,9,12a-hexamethyl-13-oxo-1,2,3,4,4a,5,6,6a,6b,7,8,8a,9,10,11,12,12a,12b,13,14b-icosahydropicene-2-carboxylic acid]	> 10
COC(=O)N[C@H]1CC[C@@]2(C)[C@@H](CC[C@]3(C)[C@@H]2C(=O)C=C2[C@@H]4C[C@@](C)(C(=O)O)CC[C@]4(C)CC[C@]23C)[C@]1(C)C(=O)O [(2S,4aS,6aS,6bR,8aR,9S,10S,12aS,12bR,14bR)-10-[(methoxycarbonyl)amino]-2,4a,6a,6b,9,12a-hexamethyl-13-oxo-1,2,3,4,4a,5,6,6a,6b,7,8,8a,9,10,11,12,12a,12b,13,14b-icosahydropicene-2,9-dicarboxylic acid]	> 10
CCC(=O)O[C@H]1CC[C@@]2(C)[C@@H](CC[C@]3(C)[C@@H]2C(=O)C=C2[C@@H]4C[C@@](C)(C(=O)O)CC[C@]4(C)CC[C@]23C)[C@]1(C)NC(=O)OCc1oc(=O)oc1CC [Compound 318-1, (2S,4aS,6aS,6bR,8aR,9S,10S,12aS,12bR,14bR)-9-((((5-ethyl-2-oxo-1,3-dioxol-4-yl)methoxy)carbonyl)amino)-2,4a,6a,6b,9,12a-hexamethyl-13-oxo-10-(propionyloxy)-1,2,3,4,4a,5,6,6a,6b,7,8,8a,9,10,11,12,12a,12b,13,14b-icosahydropicene-2-carboxylic Acid]	0.0355
C[C@]1(C(=O)O)CC[C@]2(C)CC[C@]3(C)C(=CC(=O)[C@@H]4[C@@]5(C)CC[C@H](O)[C@@](C)(N)[C@@H]5CC[C@]43C)[C@@H]2C1 [(2S,4aS,6aS,6bR,8aR,9S,10S,12aS,12bR,14bR)-9-amino-10-hydroxy-2,4a,6a,6b,9,12a-hexamethyl-13-oxo-1,2,3,4,4a,5,6,6a,6b,7,8,8a,9,10,11,12,12a,12b,13,14b-icosahydropicene-2-carboxylic acid]	> 10
C[C@]1(C(=O)O)CC[C@]2(C)CC[C@]3(C)C(=CC(=O)[C@@H]4[C@@]5(C)CC[C@H](OC(=O)NCCN6CCOCC6)[C@@](C)(C(=O)O)[C@@H]5CC[C@]43C)[C@@H]2C1 [(2S,4aS,6aS,6bR,8aR,9S,10S,12aS,12bR,14bR)-2,4a,6a,6b,9,12a-hexamethyl-10-({[2-(morpholin-4-yl)ethyl]carbamoyl}oxy)-13-oxo-1,2,3,4,4a,5,6,6a,6b,7,8,8a,9,10,11,12,12a,12b,13,14b-icosahydropicene-2,9-dicarboxylic acid]	> 10
CN(C)CC(=O)O[C@H]1CC[C@@]2(C)[C@@H](CC[C@]3(C)[C@@H]2C(=O)C=C2[C@@H]4C[C@@](C)(C(=O)O)CC[C@]4(C)CC[C@]23C)[C@]1(C)C(=O)O [(2S,4aS,6aS,6bR,8aR,9S,10S,12aS,12bR,14bR)-10-{[2-(dimethylamino)acetyl]oxy}-2,4a,6a,6b,9,12a-hexamethyl-13-oxo-1,2,3,4,4a,5,6,6a,6b,7,8,8a,9,10,11,12,12a,12b,13,14b-icosahydropicene-2,9-dicarboxylic acid]	> 10
COCO[C@H]1CC[C@@]2(C)[C@@H](CC[C@]3(C)[C@@H]2C(=O)C=C2[C@@H]4C[C@@](C)(C(=O)O)CC[C@]4(C)CC[C@]23C)[C@]1(C)C(=O)OCc1oc(=O)oc1C(C)C [Compound 258-2, (2S,4aS,6aS,6bR,8aR,9S,10S,12aS,12bR,14bR)-9-(((5-Isopropyl-2-oxo-1,3-dioxol-4-yl)methoxy)carbonyl)-10-(methoxymethoxy)-2,4a,6a,6b,9,12a-hexamethyl-13-oxo-1,2,3,4,4a,5,6,6a,6b,7,8,8a,9,10,11,12,12a,12b,13,14b-icosahydropicene-2-carboxylic Acid]	0.126
CCC(=O)O[C@H]1CC[C@]2(C)[C@H]3C(=O)C=C4[C@@H]5C[C@@](C)(C(=O)O)CC[C@]5(C)CC[C@@]4(C)[C@]3(C)CC[C@H]2[C@]1(C)N [(2S,4aS,6aS,6bR,8aR,9S,10S,12aS,12bR,14bR)-9-amino-2,4a,6a,6b,9,12a-hexamethyl-13-oxo-10-(propanoyloxy)-1,2,3,4,4a,5,6,6a,6b,7,8,8a,9,10,11,12,12a,12b,13,14b-icosahydropicene-2-carboxylic acid]	0.398

same assay, conditions: HSD2 inhibition in human descending colon cultures; 30 min pre-incubation, then 40 nM cortisol for four hours; cortisol HTRF

Compound	pIC50
2-(3-((1-PEG5K-1H-1,2,3-triazol-4-yl)methoxy)-4-nitrobenzyl) 9-((5-methyl-2-oxo-1,3-dioxol-4-yl)methyl)(2S,4aS,6aS,6bR,8aR,9S,10S,12aS,12bR,14bR)-10-((2,5,8,11-tetraoxatetradecan-14-oyl)oxy)-2,4a,6a,6b,9,12a-hexamethyl-13-oxo-1,2,3,4,4a,5,6,6a,6b,7,8,8a,9,10,11,12,12a,12b,13,14b-icosahydropicene-2,9-dicarboxylate [Compound 605-2]	6.9
